Source: patent US11931424B2, “Combination MCL-1 inhibitors with anti-body drug conjugates” (Gilead Sciences, Inc., priority 2021, dated 2024)

System: panel of breast cancer cell lines
Experiment: Compound A with targeted agents and chemotherapies, 72-hour in vitro proliferation assays
Format: cell-based
Settings: compound A × partner, 72-hour proliferation

CC(C)NC[C@@H](C(=O)N1CCN(c2ncnc3c2[C@H](C)C[C@H]3O)CC1)c1ccc(Cl)cc1 [GDC-0068]
Best CI (AU565 cell line): 0.88
Bliss Volume (AU565 cell line): 5.42
HSA volume (AU565 cell line): 2.46
Loewe Volume (AU565 cell line): 1.85
Synergy Score (AU565 cell line): 6.93
Best CI (BT-20 cell line): 0.15
Bliss Volume (BT-20 cell line): 14.37
HSA volume (BT-20 cell line): 13.36
Loewe Volume (BT-20 cell line): 11.91
Synergy Score (BT-20 cell line): 26.99
Best CI (CAL-51 cell line): 0.66
Bliss Volume (CAL-51 cell line): 1.90
HSA volume (CAL-51 cell line): 2.22
Loewe Volume (CAL-51 cell line): 2.48
Synergy Score (CAL-51 cell line): 1.93
Best CI (CAL-85-1 cell line): 0.22
Bliss Volume (CAL-85-1 cell line): −1.63
HSA volume (CAL-85-1 cell line): 2.26
Loewe Volume (CAL-85-1 cell line): 1.63
Synergy Score (CAL-85-1 cell line): 4.37
Best CI (CAL-120 cell line): 0.04
Bliss Volume (CAL-120 cell line): −1.18
HSA volume (CAL-120 cell line): −0.50
Loewe Volume (CAL-120 cell line): 0.09
Synergy Score (CAL-120 cell line): 1.05
Best CI (CAL-148 cell line): 0.20
Bliss Volume (CAL-148 cell line): 15.98
HSA volume (CAL-148 cell line): 11.23
Loewe Volume (CAL-148 cell line): 11.35
Synergy Score (CAL-148 cell line): 22.09
Best CI (CAMA-1 cell line): 0.11
Bliss Volume (CAMA-1 cell line): 26.60
HSA volume (CAMA-1 cell line): 14.33
Loewe Volume (CAMA-1 cell line): 13.52
Synergy Score (CAMA-1 cell line): 27.46
Bliss Volume (DU-4475 cell line): −5.18
HSA volume (DU-4475 cell line): −7.77
Loewe Volume (DU-4475 cell line): −5.05
Synergy Score (DU-4475 cell line): 0.20
Best CI (EVSA-T cell line): 0.27
Bliss Volume (EVSA-T cell line): 38.10
HSA volume (EVSA-T cell line): 10.77
Loewe Volume (EVSA-T cell line): 8.56
Synergy Score (EVSA-T cell line): 18.16
Best CI (HCC38): 1.04
Bliss Volume (HCC38): 3.63
HSA volume (HCC38): 6.49
Loewe Volume (HCC38): 5.61
Synergy Score (HCC38): 5.92
Best CI (HCC70): 0.30
Bliss Volume (HCC70): 19.29
HSA volume (HCC70): 14.42
Loewe Volume (HCC70): 13.10
Synergy Score (HCC70): 27.63
Best CI (HCC1143): 0.56
Bliss Volume (HCC1143): 1.41
HSA volume (HCC1143): −1.97
Loewe Volume (HCC1143): 1.22
Synergy Score (HCC1143): 3.73
Best CI (HCC1569): 0.24
Bliss Volume (HCC1569): 9.34
HSA volume (HCC1569): 10.52
Loewe Volume (HCC1569): 10.52
Synergy Score (HCC1569): 15.41
Best CI (HCC1806): 0.83
Bliss Volume (HCC1806): 4.78
HSA volume (HCC1806): −2.22
Loewe Volume (HCC1806): 2.14
Synergy Score (HCC1806): 2.21
Best CI (HCC1937): 0.44
Bliss Volume (HCC1937): 8.88
HSA volume (HCC1937): 6.08
Loewe Volume (HCC1937): 8.48
Synergy Score (HCC1937): 6.18
Best CI (HCC1954): 0.16
Bliss Volume (HCC1954): 19.16
HSA volume (HCC1954): 18.41
Loewe Volume (HCC1954): 17.07
Synergy Score (HCC1954): 33.91
Best CI (HCC2218): 0.13
Bliss Volume (HCC2218): 10.70
HSA volume (HCC2218): 8.89
Loewe Volume (HCC2218): 7.71
Synergy Score (HCC2218): 22.09
Best CI (HDQ-P1): 1.46
Bliss Volume (HDQ-P1): −1.34
HSA volume (HDQ-P1): −1.27
Loewe Volume (HDQ-P1): −2.21
Synergy Score (HDQ-P1): 1.94
Best CI (HMC-1-8): 0.26
Bliss Volume (HMC-1-8): 17.75
HSA volume (HMC-1-8): 12.01
Loewe Volume (HMC-1-8): 12.08
Synergy Score (HMC-1-8): 21.76
Best CI (JIMT-1): 0.26
Bliss Volume (JIMT-1): 2.76
HSA volume (JIMT-1): 1.18
Loewe Volume (JIMT-1): 1.53
Synergy Score (JIMT-1): 1.19
Synergy Score (KPL-1): 10.58

Cn1ncnc1[C@H]1c2n[nH]c(=O)c3cc(F)cc(c23)N[C@@H]1c1ccc(F)cc1 [BMN 673]
Best CI (AU565 cell line): 0.72
Bliss Volume (AU565 cell line): 5.62
HSA volume (AU565 cell line): 2.94
Synergy Score (AU565 cell line): 8.12
Best CI (BT-20 cell line): 0.67
Bliss Volume (BT-20 cell line): 6.61
HSA volume (BT-20 cell line): 7.19
Loewe Volume (BT-20 cell line): 7.05
Synergy Score (BT-20 cell line): 13.00
Best CI (CAL-51 cell line): 0.26
Bliss Volume (CAL-51 cell line): 6.45
HSA volume (CAL-51 cell line): 8.03
Loewe Volume (CAL-51 cell line): 8.01
Synergy Score (CAL-51 cell line): 6.14
Best CI (CAL-85-1 cell line): 0.10
Bliss Volume (CAL-85-1 cell line): 9.61
HSA volume (CAL-85-1 cell line): 13.84
Loewe Volume (CAL-85-1 cell line): 13.04
Synergy Score (CAL-85-1 cell line): 13.48
Best CI (CAL-120 cell line): 2.73
Bliss Volume (CAL-120 cell line): −3.70
HSA volume (CAL-120 cell line): −7.12
Loewe Volume (CAL-120 cell line): −9.94
Synergy Score (CAL-120 cell line): 0.01
Best CI (CAL-148 cell line): 0.03
Bliss Volume (CAL-148 cell line): 32.27
HSA volume (CAL-148 cell line): 30.51
Loewe Volume (CAL-148 cell line): 33.70
Synergy Score (CAL-148 cell line): 51.37
Best CI (CAMA-1 cell line): 0.44
Bliss Volume (CAMA-1 cell line): 14.84
HSA volume (CAMA-1 cell line): 11.15
Loewe Volume (CAMA-1 cell line): 11.46
Best CI (DU-4475 cell line): 0.90
Bliss Volume (DU-4475 cell line): 14.54
HSA volume (DU-4475 cell line): 11.67
Loewe Volume (DU-4475 cell line): 11.80
Synergy Score (DU-4475 cell line): 12.59
Best CI (EVSA-T cell line): 0.76
Bliss Volume (EVSA-T cell line): 12.51
HSA volume (EVSA-T cell line): 5.77
Loewe Volume (EVSA-T cell line): 5.78
Synergy Score (EVSA-T cell line): 7.17
Best CI (HCC38): 0.09
Bliss Volume (HCC38): 12.68
Loewe Volume (HCC38): 13.43
Synergy Score (HCC38): 20.73
Best CI (HCC70): 0.39
Bliss Volume (HCC70): 15.24
HSA volume (HCC70): 15.02
Loewe Volume (HCC70): 15.13
Best CI (HCC1143 cell line): 0.53
Bliss Volume (HCC1143 cell line): 0.82
HSA volume (HCC1143 cell line): 2.15
Loewe Volume (HCC1143 cell line): 1.38
Synergy Score (HCC1143 cell line): 4.91
Best CI (HCC1569): 0.55
Bliss Volume (HCC1569): 9.55
HSA volume (HCC1569): 11.82
Loewe Volume (HCC1569): 11.51
Synergy Score (HCC1569): 10.50
Best CI (HCC1806): 0.15
Bliss Volume (HCC1806): 15.34
HSA volume (HCC1806): 21.19
Loewe Volume (HCC1806): 21.61
Synergy Score (HCC1806): 26.09
Best CI (HCC1937): 0.51
Bliss Volume (HCC1937): 5.18
HSA volume (HCC1937): 0.65
Loewe Volume (HCC1937): 4.96
Synergy Score (HCC1937): 3.27
Best CI (HCC1954): 0.56
Bliss Volume (HCC1954): 7.66
HSA volume (HCC1954): 7.39
Loewe Volume (HCC1954): 8.33
Synergy Score (HCC1954): 9.80
Best CI (HCC2218): 0.90
Bliss Volume (HCC2218): 1.41
HSA volume (HCC2218): 0.71
Loewe Volume (HCC2218): 0.15
Synergy Score (HCC2218): 5.35
Best CI (HDQ-P1): 0.91
Bliss Volume (HDQ-P1): 0.31
HSA volume (HDQ-P1): −0.95
Loewe Volume (HDQ-P1): −0.15
Synergy Score (HDQ-P1): 1.09
Best CI (HMC-1-8): 0.22
Bliss Volume (HMC-1-8): 22.38
HSA volume (HMC-1-8): 11.38
Loewe Volume (HMC-1-8): 11.09
Synergy Score (HMC-1-8): 19.54
Best CI (JIMT-1): 0.13
Bliss Volume (JIMT-1): −0.56
HSA volume (JIMT-1): −1.70
Loewe Volume (JIMT-1): −1.62
Synergy Score (JIMT-1): 1.28
Best CI (KPL-1): 0.53
Bliss Volume (KPL-1): −2.58
HSA volume (KPL-1): 0.29
Synergy Score (KPL-1): 1.84
